Experimental data as given in patent US5089623A, “Certain imidate insecticides” (Imperial Chemical Industries Plc, priority 1990, dated 1992).

Columns and labels:
Assay type in all cases: in vivo
[1] = tested on: Housefly [Musca domestica]; assay: Housefly insecticidal test (HF); settings: per 25 female houseflies, 48 hours
[2] = tested on: Tobacco Budworm [Heliothis virescens (Fabricius)] eggs; assay: Tobacco budworm egg test (TBW-E); settings: percent in solution
Source text: Eggs: Paper towel patches of 2-day old eggs of the tobacco budworm were dipped in acetone solutions of the test compound and placed in petri dishes containing a portion of larval rearing medium. […] Test concentrations ranged from 0.1% downward.

[3] = tested on: Cabbage Looper [Trichoplusia ni (Hubner)]; assay: Cabbage looper test (CL); settings: second-instar larvae, 3-5 days, percent in solution

CC(C)(C)C(=Nc1cccc(Cl)c1)OCc1cccc(Oc2ccccc2)c1 [Compound 12]
LC50 HF [1]: > 100 µg | LC50 TBW E [2]: > 0.1% | LC50 CL [3]: 0.008%

CC1CC1C(=Nc1ccc(Cl)cc1)OCc1cccc(Oc2ccccc2)c1 (centres unmarked) [Compound 15]
LC50 HF [1]: > 100 µg | LC50 TBW E [2]: > 0.01% | LC50 CL [3]: 0.025%

CC(C)C(=Nc1cc(Cl)c(Cl)cc1Cl)OCc1cccc(Oc2ccccc2)c1 [Compound 18]
LC50 HF [1]: > 100 µg | LC50 TBW E [2]: 0.09% | LC50 CL [3]: 0.008%

CC(C)C(=Nc1c(Cl)cc(Cl)cc1Cl)OCc1cccc(Oc2ccccc2)c1 [Compound 19]
LC50 HF [1]: > 100 µg | LC50 TBW E [2]: > 0.1% | LC50 CL [3]: < 0.1%

COC(C)C(=Nc1ccc(Cl)cc1)OCc1cccc(Oc2ccccc2)c1 (centres unmarked) [Compound 22]
LC50 HF [1]: 15 µg | LC50 TBW E [2]: 0.08% | LC50 CL [3]: 0.004%

Clc1cccc(N=C(OCc2cccc(Oc3ccccc3)c2)C2CC2)c1 [Compound 24]
LC50 HF [1]: 25 µg | LC50 TBW E [2]: 0.1% | LC50 CL [3]: 0.005%

CCC(C)C(=Nc1ccc(Cl)cc1)OCc1cccc(Oc2ccccc2)c1 (centres unmarked) [Compound 26]
LC50 HF [1]: > 100 µg | LC50 TBW E [2]: > 0.1% | LC50 CL [3]: 0.007%

CC(Cl)C(=Nc1ccc(Cl)c(Cl)c1)OCc1cccc(Oc2ccccc2)c1 (centres unmarked) [Compound 27]
LC50 HF [1]: > 100 µg | LC50 TBW E [2]: > 0.1% | LC50 CL [3]: 0.04%

CCC(=Nc1cccc(Cl)c1Cl)OCc1cccc(Oc2ccccc2)c1 [Compound 28]
LC50 HF [1]: > 100 µg | LC50 TBW E [2]: > 0.1% | LC50 CL [3]: 0.009%

CCC(=Nc1ccc(Cl)c(Cl)c1)OCc1cccc(Oc2ccccc2)c1 [Compound 36]
LC50 HF [1]: 20 µg | LC50 TBW E [2]: > 0.01% | LC50 CL [3]: 0.024%

CCCC(=Nc1ccc(Cl)c(Cl)c1)OCc1cccc(Oc2ccccc2)c1 [Compound 38]
LC50 HF [1]: 33 µg | LC50 TBW E [2]: 0.05% | LC50 CL [3]: 0.006%

CCC(C)C(=Nc1ccc(Cl)c(Cl)c1)OCc1cccc(Oc2ccccc2)c1 (centres unmarked) [Compound 39]
LC50 HF [1]: > 100 µg | LC50 TBW E [2]: > 0.1% | LC50 CL [3]: 0.0023%

CC(C)C(=Nc1ccc(Cl)c(Cl)c1)OCc1cccc(Oc2cccc(F)c2)c1 [Compound 40]
LC50 HF [1]: 36 µg | LC50 TBW E [2]: 0.08% | LC50 CL [3]: 0.0025%

CC(C)(C)C(=Nc1ccc(F)cc1)OCc1cccc(Oc2ccccc2)c1 [Compound 48]
LC50 HF [1]: > 100 µg | LC50 TBW E [2]: > 0.05% | LC50 CL [3]: 0.03%

CC(C)C(=Nc1cc(F)ccc1F)OCc1cccc(Oc2ccccc2)c1 [Compound 56]
LC50 HF [1]: 91 µg | LC50 TBW E [2]: > 0.05% | LC50 CL [3]: 0.01%

CC(C)C(=Nc1cc(F)c(F)cc1F)OCc1cccc(Oc2ccccc2)c1 [Compound 58]
LC50 HF [1]: 16 µg | LC50 TBW E [2]: 0.06% | LC50 CL [3]: 0.002%

CCC(=Nc1ccc(F)cc1F)OCc1cccc(Oc2ccccc2)c1 [Compound 59]
LC50 HF [1]: 25 µg | LC50 TBW E [2]: > 0.1% | LC50 CL [3]: 0.02%

COc1cc(N=C(OCc2cccc(Oc3ccccc3)c2)C(C)C)cc(C(F)(F)F)c1 [Compound 76]
LC50 HF [1]: 20 µg | LC50 TBW E [2]: 0.05% | LC50 CL [3]: 0.002%

CC(C)C(=Nc1cc(C(F)(F)F)cc(C(F)(F)F)c1)OCc1cccc(Oc2ccccc2)c1 [Compound 78]
LC50 HF [1]: > 100 µg | LC50 TBW E [2]: > 0.1% | LC50 CL [3]: 0.0025%

CC(C)C(=Nc1ccc(Br)cc1F)OCc1cccc(Oc2ccccc2)c1 [Compound 79]
LC50 HF [1]: 6 µg | LC50 TBW E [2]: 0.05% | LC50 CL [3]: 0.003%

CC(C)C(=Nc1cc(C(F)(F)F)ccc1F)OCc1cccc(Oc2ccccc2)c1 [Compound 84]
LC50 HF [1]: 93 µg | LC50 TBW E [2]: 0.1% | LC50 CL [3]: 0.006%

FC(F)(F)c1cccc(N=C(OCc2cccc(Oc3ccccc3)c2)C2CC2)c1 [Compound 86]
LC50 HF [1]: 65 µg | LC50 TBW E [2]: > 0.01% | LC50 CL [3]: 0.013%

Cc1cc(N=C(OCc2cccc(Oc3ccccc3)c2)C(C)C)ccc1F [Compound 87]
LC50 HF [1]: 5 µg | LC50 TBW E [2]: 0.03% | LC50 CL [3]: 0.004%

Cc1ccc(Cl)c(N=C(OCc2cccc(Oc3ccccc3)c2)C(C)C)c1 [Compound 93]
LC50 HF [1]: 64 µg | LC50 TBW E [2]: > 0.1% | LC50 CL [3]: 0.005%

Cc1ccc(N=C(OCc2cccc(Oc3ccccc3)c2)C(C)C)c(Cl)c1 [Compound 94]
LC50 HF [1]: 44 µg | LC50 TBW E [2]: 0.075% | LC50 CL [3]: 0.0045%

COc1cc(N=C(OCc2cccc(Oc3ccccc3)c2)C(C)C)c(OC)cc1Cl [Compound 99]
LC50 HF [1]: > 100 µg | LC50 TBW E [2]: > 0.1% | LC50 CL [3]: 0.016%

CCSc1ccc(N=C(OCc2cccc(Oc3ccccc3)c2)C(C)C)cc1Cl [Compound 103]
LC50 HF [1]: > 100 µg | LC50 TBW E [2]: > 0.1% | LC50 CL [3]: 0.015%

CCOC(=O)c1ccc(N=C(OCc2cccc(Oc3ccccc3)c2)C(C)C)cc1Cl [Compound 104]
LC50 HF [1]: > 100 µg | LC50 TBW E [2]: > 0.1% | LC50 CL [3]: 0.004%

CC(C)(C)C(=Nc1ccc(Cl)c([N+](=O)[O-])c1)OCc1cccc(Oc2ccccc2)c1 [Compound 105]
LC50 HF [1]: > 100 µg | LC50 TBW E [2]: > 0.1% | LC50 CL [3]: 0.018%

CC(C)(C)C(=Nc1ccc(Br)c(Cl)c1)OCc1cccc(Oc2ccccc2)c1 [Compound 106]
LC50 HF [1]: > 100 µg | LC50 TBW E [2]: > 0.1% | LC50 CL [3]: 0.014%

Cc1ccc(N=C(OCc2cccc(Oc3ccccc3)c2)C(C)(C)C)cc1Cl [Compound 107]
LC50 HF [1]: > 100 µg | LC50 TBW E [2]: > 0.1% | LC50 CL [3]: 0.007%

Cc1cc(Cl)ccc1N=C(OCc1cccc(Oc2ccccc2)c1)C(C)(C)C [Compound 109]
LC50 HF [1]: > 100 µg | LC50 TBW E [2]: > 0.1% | LC50 CL [3]: 0.002%

COc1ccc(N=C(OCc2cccc(Oc3ccc(F)cc3)c2)C(C)C)cc1Cl [Compound 110]
LC50 HF [1]: 26 µg | LC50 TBW E [2]: 0.04% | LC50 CL [3]: 0.007%

CC(C)(Cl)C(=Nc1ccc(Cl)c2ccccc12)OCc1cccc(Oc2ccccc2)c1 [Compound 111]
LC50 HF [1]: > 100 µg | LC50 TBW E [2]: > 0.1% | LC50 CL [3]: 0.1%

CC(C)C(=Nc1cccc(Oc2ccccn2)c1)OCc1cccc(Oc2ccccc2)c1 [Compound 114]
LC50 HF [1]: 92 µg | LC50 CL [3]: < 0.1%

CCC(=Nc1ccc(F)c(Cl)c1)OCc1cccc(Oc2ccc(F)cc2)c1 [Compound 115]
LC50 HF [1]: 10 µg | LC50 TBW E [2]: 0.075% | LC50 CL [3]: 0.0012%

CC(Br)C(=Nc1ccc(F)c(Cl)c1)OCc1cccc(Oc2ccccc2)c1 (centres unmarked) [Compound 118]
LC50 HF [1]: 18 µg | LC50 TBW E [2]: > 0.1% | LC50 CL [3]: 0.0013%

CCCCC(=Nc1ccc(F)c(Cl)c1)OCc1cccc(Oc2ccccc2)c1 [Compound 121]
LC50 HF [1]: > 100 µg | LC50 TBW E [2]: > 0.1% | LC50 CL [3]: 0.1%

CCCC(=Nc1ccc(F)c(Cl)c1)OCc1cccc(Oc2ccccc2)c1 [Compound 123]
LC50 HF [1]: > 100 µg | LC50 TBW E [2]: > 0.1% | LC50 CL [3]: 0.012%

CC(C)C(=Nc1cccc(C#N)c1)OCc1cccc(Oc2ccccc2)c1 [Compound 126]
LC50 HF [1]: > 100 µg | LC50 TBW E [2]: > 0.1% | LC50 CL [3]: 0.08%

Cc1cc(N=C(OCc2cccc(Oc3ccccc3)c2)C(C)C)ccc1Br [Compound 127]
LC50 HF [1]: 58 µg | LC50 TBW E [2]: 0.04% | LC50 CL [3]: 0.01%

CC(C)C(=Nc1c(Br)cc(F)cc1Br)OCc1cccc(Oc2ccccc2)c1 [Compound 130]
LC50 HF [1]: > 100 µg | LC50 TBW E [2]: > 0.1% | LC50 CL [3]: 0.005%

Cc1cc(Br)ccc1N=C(OCc1cccc(Oc2ccccc2)c1)C(C)C [Compound 133]
LC50 HF [1]: 66 µg | LC50 TBW E [2]: 0.1% | LC50 CL [3]: 0.005%

CC(C)(C)C(=Nc1cccc(Br)c1)OCc1cccc(Oc2ccccc2)c1 [Compound 134]
LC50 HF [1]: > 100 µg | LC50 TBW E [2]: > 0.1% | LC50 CL [3]: 0.015%

CC(C)C(=Nc1cccc(I)c1)OCc1cccc(Oc2ccccc2)c1 [Compound 136]
LC50 HF [1]: 9 µg | LC50 TBW E [2]: 0.08% | LC50 CL [3]: 0.004%

CSc1ccc(N=C(OCc2cccc(Oc3ccccc3)c2)C(Cl)Cl)cc1 [Compound 141]
LC50 HF [1]: 35 µg | LC50 TBW E [2]: > 0.1% | LC50 CL [3]: < 0.1%

Cc1cccc(N=C(OCc2cccc(Oc3ccccc3)c2)C(C)C)c1C [Compound 148]
LC50 HF [1]: 18 µg | LC50 TBW E [2]: 0.025% | LC50 CL [3]: 0.0025%

COc1ccc(N=C(OCc2cccc(Oc3ccccc3)c2)C(C)C)c(C)c1 [Compound 149]
LC50 HF [1]: 17 µg | LC50 TBW E [2]: 0.05% | LC50 CL [3]: 0.007%

COc1ccc(C)cc1N=C(OCc1cccc(Oc2ccccc2)c1)C(C)C [Compound 150]
LC50 HF [1]: 89 µg | LC50 TBW E [2]: > 0.1% | LC50 CL [3]: 0.01%

CCCCc1ccc(N=C(OCc2cccc(Oc3ccccc3)c2)C(C)C)cc1 [Compound 152]
LC50 HF [1]: > 100 µg | LC50 TBW E [2]: > 0.1% | LC50 CL [3]: 0.009%

CCC(=Nc1ccc(CC)cc1)OCc1cccc(Oc2ccccc2)c1 [Compound 157]
LC50 HF [1]: 25 µg | LC50 TBW E [2]: > 0.1% | LC50 CL [3]: 0.009%

Cc1ccc(N=C(OCc2cccc(Oc3ccccc3)c2)C(C)C)cc1C [Compound 158]
LC50 HF [1]: 9 µg | LC50 TBW E [2]: 0.1% | LC50 CL [3]: 0.003%

CCOc1ccc(N=C(OCc2cccc(Oc3ccccc3)c2)C(C)(C)C)cc1 [Compound 164]
LC50 HF [1]: > 100 µg | LC50 TBW E [2]: > 0.1% | LC50 CL [3]: 0.005%

FC(F)(F)c1ccc(Oc2ccc(COC(=Nc3ccc(Cl)cc3)C(Cl)Cl)cc2)nc1 [Compound 453]
LC50 HF [1]: > 100 µg | LC50 CL [3]: 0.1%

CC(C)C(=Nc1ccc(F)c(Cl)c1)OC(F)c1cccc(Oc2ccc(F)cc2)c1 (centres unmarked) [Compound 502]
LC50 HF [1]: 80 µg
